Assay: Binding affinity to orotidine-5'-monophosphate decarboxylase relative to uracil

Row | relative binding affinity (RBA) | Compound
1 | 29 | O=c1cc[nH]c(=S)[nH]1
2 | 61 | Oc1nccc(S)n1

From ChEMBL document CHEMBL1909606, “Polarization in the structures of uracil and thiouracils: Implication for binding with orotidine 5'-monophosphate decarboxylase” (Bioorg Med Chem Lett, 2011)
